This is an account of results in ChEMBL document CHEMBL1201862, “PubChem BioAssay data set” (2004).

For experiment [1], the target named is T1, Zinc finger protein mex-5 (Caenorhabditis elegans, UniProt Q9XUB2).
T1 sequence (Q9XUB2 whole entry): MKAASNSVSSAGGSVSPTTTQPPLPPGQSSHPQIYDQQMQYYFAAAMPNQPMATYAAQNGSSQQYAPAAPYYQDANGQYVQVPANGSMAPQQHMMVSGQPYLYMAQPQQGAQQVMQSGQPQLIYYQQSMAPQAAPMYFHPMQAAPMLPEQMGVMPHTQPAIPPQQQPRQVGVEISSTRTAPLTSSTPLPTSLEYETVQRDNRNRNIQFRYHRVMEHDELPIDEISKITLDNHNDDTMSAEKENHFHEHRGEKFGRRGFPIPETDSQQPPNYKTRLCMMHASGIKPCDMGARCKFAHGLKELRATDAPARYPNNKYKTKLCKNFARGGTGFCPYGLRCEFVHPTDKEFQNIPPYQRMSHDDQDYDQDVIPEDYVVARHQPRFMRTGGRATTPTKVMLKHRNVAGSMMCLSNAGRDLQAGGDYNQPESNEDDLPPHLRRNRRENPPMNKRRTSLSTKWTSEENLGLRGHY
Kind of experiment: MEX-5/TCR-2 RNA interaction inhibitors, dose response, biochemical, C. elegans, fluorescence polarization (AID 1960). For orientation: In fluorescence polarisation assays a small probe gives low polarisation when free and higher when bound to something large.

For experiment [2], the target named is Botulinum neurotoxin type A (Clostridium botulinum (strain Hall / ATCC 3502 / NCTC 13319 / Type A), UniProt P0DPI1). Kind of experiment: High-throughput multiplex microsphere dose response for inhibitors of toxin protease, specifically Botulinum neurotoxin light chain A protease, compounds from Cherry Pick 01. The note with it: read-out: EC50_MICROM. It is filed as functional.

In experiment [3] the target is Botulinum neurotoxin type F (Clostridium botulinum, UniProt P30996). Kind of experiment: High-throughput multiplex microsphere dose response for inhibitors of toxin protease, specifically Botulinum neurotoxin light chain F protease, compounds from Cherry Pick 01. It is filed as functional. The conditions noted are these: read-out: EC50_MICROM.
Experiment [4] deals with T2, Corticotropin-releasing factor receptor 2/Corticotropin-releasing factor-binding protein (Homo sapiens, UniProt P24387+Q13324).
T2 sequence (Q13324 whole entry): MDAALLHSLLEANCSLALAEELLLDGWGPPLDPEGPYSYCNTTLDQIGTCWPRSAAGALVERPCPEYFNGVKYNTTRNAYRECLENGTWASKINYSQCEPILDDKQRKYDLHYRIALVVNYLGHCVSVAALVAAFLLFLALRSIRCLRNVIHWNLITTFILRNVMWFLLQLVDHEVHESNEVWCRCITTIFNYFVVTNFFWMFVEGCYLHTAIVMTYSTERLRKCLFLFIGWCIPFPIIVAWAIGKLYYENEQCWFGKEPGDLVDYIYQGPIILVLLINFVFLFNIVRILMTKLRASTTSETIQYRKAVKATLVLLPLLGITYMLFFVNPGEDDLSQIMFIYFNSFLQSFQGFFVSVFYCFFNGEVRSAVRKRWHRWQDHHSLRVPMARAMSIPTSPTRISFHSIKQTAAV
T2 sequence (P24387 whole entry): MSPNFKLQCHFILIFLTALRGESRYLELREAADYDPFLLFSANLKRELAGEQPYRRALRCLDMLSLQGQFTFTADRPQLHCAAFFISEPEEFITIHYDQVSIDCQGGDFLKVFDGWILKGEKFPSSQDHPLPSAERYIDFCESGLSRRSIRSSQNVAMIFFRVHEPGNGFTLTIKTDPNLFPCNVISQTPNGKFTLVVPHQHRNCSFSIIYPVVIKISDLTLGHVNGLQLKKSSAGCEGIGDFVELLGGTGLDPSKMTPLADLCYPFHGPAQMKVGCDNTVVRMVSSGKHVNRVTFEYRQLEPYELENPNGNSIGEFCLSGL
Kind of experiment: activators of CRF receptor 2 with binding protein – uHTS hits, confirmation (AID 602473). The experiment is classed as functional. The conditions noted are these: read-out: EC50_Mean.

A further experiment deals with Lethal factor (Bacillus anthracis, UniProt P15917). Kind of experiment: High-throughput multiplex microsphere dose response for inhibitors of toxin protease, specifically Lethal Factor protease, compounds from Cherry Pick 01. It is filed as functional. The conditions noted are these: read-out: EC50_MICROM.
Experiment [5] addresses T3, RNA-binding protein pos-1 (Caenorhabditis elegans, UniProt G5EF15).
T3 sequence (G5EF15 whole entry): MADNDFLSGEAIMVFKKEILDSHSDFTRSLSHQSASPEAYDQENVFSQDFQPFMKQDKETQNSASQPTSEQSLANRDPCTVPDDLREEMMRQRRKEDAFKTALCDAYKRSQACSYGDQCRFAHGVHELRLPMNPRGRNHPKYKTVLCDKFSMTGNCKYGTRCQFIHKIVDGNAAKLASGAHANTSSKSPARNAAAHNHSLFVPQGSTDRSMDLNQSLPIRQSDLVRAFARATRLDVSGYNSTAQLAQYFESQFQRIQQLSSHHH
Kind of experiment: inhibitors of POS-1/mex-3 RNA binding, dose response, biochemical, fluorescence polarization (AID 1964).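 Note: purified POS-1 fused to maltose binding protein made in E. coli; potency of compounds blocking POS-1 binding to fluorescent RNA.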

The target in experiment [6] is Serine/threonine-protein kinase pim-1 (Homo sapiens, UniProt P11309). The experiment is classed as functional.
Serine/threonine-protein kinase pim-1, sequence (P11309 whole entry): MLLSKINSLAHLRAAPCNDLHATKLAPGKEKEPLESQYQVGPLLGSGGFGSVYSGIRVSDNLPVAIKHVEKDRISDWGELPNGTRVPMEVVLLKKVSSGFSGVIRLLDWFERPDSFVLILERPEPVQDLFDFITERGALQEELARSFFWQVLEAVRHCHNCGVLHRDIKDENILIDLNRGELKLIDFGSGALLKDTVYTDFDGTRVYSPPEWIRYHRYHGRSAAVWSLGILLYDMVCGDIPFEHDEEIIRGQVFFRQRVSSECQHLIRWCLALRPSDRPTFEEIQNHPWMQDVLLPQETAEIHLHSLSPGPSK
Experiment [7] deals with T4, Interleukin-1 receptor-associated kinase 4 (Homo sapiens, UniProt Q9NWZ3).
T4 sequence (Q9NWZ3 whole entry): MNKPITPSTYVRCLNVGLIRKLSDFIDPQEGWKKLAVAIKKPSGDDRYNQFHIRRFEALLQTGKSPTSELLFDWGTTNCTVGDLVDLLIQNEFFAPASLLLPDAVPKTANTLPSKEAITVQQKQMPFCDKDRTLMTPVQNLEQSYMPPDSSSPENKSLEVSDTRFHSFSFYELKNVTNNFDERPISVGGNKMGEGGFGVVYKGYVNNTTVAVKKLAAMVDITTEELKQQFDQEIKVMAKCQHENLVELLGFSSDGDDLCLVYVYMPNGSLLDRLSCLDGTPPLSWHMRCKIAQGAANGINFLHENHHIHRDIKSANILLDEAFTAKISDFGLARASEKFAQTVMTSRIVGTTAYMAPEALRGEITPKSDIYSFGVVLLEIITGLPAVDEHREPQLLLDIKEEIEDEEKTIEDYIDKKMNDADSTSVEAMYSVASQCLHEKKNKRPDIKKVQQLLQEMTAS
It is filed as functional.

For experiment [8], the target named is Cell division cycle 7-related protein kinase (Homo sapiens, UniProt O00311). It is filed as functional.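 Note: value obtained from a kinome-wide kinase panel.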
Experiment [9] addresses Glycogen synthase kinase-3 beta (Homo sapiens, UniProt P49841). The experiment is classed as functional.
Experiment [10] addresses Homeodomain-interacting protein kinase 2 (Homo sapiens, UniProt Q9H2X6). It is filed as functional.
Experiment [11] concerns the target Cyclin-dependent kinase 9 (Homo sapiens, UniProt P50750). It is filed as functional.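 Note: value from the CDK9 entry of a kinome-spanning kinase panel.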
Experiment [12] addresses Cyclin-dependent kinase 7 (Homo sapiens, UniProt P50613). The experiment is classed as functional.
In experiment [13] the target is cAMP-dependent protein kinase catalytic subunit alpha (Homo sapiens, UniProt P17612). The experiment is classed as functional.
Experiment [14] concerns the target Cyclin-dependent kinase 19 (Homo sapiens, UniProt Q9BWU1). Kind of experiment: Navigating the Kinome. Panel member name: CDC2L6. It is filed as functional.
Experiment [15] deals with Dual specificity protein kinase CLK4 (Homo sapiens, UniProt Q9HAZ1). The experiment is classed as functional.
Dual specificity protein kinase CLK4, sequence (Q9HAZ1 whole entry): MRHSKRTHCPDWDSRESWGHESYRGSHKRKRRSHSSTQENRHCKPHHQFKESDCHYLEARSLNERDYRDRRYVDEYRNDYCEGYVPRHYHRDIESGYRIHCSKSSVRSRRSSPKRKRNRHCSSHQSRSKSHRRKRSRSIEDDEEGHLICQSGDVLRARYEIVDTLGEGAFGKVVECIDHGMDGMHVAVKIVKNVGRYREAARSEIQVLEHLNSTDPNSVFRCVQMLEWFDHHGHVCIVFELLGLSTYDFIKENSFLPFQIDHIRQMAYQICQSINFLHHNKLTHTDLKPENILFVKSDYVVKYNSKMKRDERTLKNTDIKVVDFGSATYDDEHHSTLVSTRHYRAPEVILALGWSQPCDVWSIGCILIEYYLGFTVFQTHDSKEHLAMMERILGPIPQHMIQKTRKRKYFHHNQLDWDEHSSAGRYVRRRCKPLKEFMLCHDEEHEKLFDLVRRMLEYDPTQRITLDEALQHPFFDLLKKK
For experiment [16], the target named is Calcium/calmodulin-dependent protein kinase type II subunit alpha (Homo sapiens, UniProt Q9UQM7). Kind of experiment: Navigating the Kinome. Panel member name: CAMK2A. The experiment is classed as functional.
Calcium/calmodulin-dependent protein kinase type II subunit alpha, sequence (Q9UQM7 whole entry): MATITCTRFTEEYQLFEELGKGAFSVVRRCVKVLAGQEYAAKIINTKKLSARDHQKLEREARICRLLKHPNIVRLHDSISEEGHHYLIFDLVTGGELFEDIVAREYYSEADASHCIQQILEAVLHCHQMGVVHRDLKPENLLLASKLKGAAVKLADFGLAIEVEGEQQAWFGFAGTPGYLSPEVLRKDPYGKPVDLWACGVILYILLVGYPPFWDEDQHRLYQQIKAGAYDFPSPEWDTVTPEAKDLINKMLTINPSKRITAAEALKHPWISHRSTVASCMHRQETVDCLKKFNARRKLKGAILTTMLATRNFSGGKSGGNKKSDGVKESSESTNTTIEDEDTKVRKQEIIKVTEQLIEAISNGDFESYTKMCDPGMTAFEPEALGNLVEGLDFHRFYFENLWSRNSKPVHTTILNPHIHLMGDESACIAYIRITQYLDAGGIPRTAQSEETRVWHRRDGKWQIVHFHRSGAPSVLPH
Experiment [17] addresses Mitogen-activated protein kinase kinase kinase kinase 4 (Homo sapiens, UniProt O95819). It is filed as functional.
For the next experiment, the target named is Activin receptor type-1 (Homo sapiens, UniProt Q04771). Kind of experiment: Navigating the Kinome. Panel member name: ACVR1. It is filed as functional.
Experiment [18] concerns the target Serine/threonine-protein kinase PAK 4 (Homo sapiens, UniProt O96013). The experiment is classed as functional.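 Note: value obtained within a kinome profiling panel in which PAK4 was one of the panel members.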
Experiment [19] deals with Glycogen synthase kinase-3 alpha (Homo sapiens, UniProt P49840). It is filed as functional.
Glycogen synthase kinase-3 alpha, sequence (P49840 whole entry): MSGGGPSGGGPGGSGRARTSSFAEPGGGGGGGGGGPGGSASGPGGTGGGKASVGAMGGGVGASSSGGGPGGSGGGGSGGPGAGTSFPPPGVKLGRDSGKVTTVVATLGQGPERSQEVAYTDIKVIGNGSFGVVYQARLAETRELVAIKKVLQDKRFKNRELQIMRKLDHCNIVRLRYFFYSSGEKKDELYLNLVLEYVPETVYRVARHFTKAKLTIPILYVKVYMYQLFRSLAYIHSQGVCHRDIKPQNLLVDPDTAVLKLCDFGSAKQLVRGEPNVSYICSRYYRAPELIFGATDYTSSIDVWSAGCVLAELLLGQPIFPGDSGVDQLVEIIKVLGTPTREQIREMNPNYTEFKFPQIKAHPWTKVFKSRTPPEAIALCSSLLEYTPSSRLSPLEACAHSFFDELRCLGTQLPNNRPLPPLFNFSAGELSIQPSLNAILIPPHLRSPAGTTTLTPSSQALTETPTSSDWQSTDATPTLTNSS
Experiment [20] deals with G protein-coupled receptor kinase 5 (Homo sapiens, UniProt P34947). Kind of experiment: Navigating the Kinome. Panel member name: GPRK5. The experiment is classed as functional.
Experiment [21] addresses Mitogen-activated protein kinase 8 (Homo sapiens, UniProt P45983). It is filed as functional.
The target of experiment [22] is Serine/threonine-protein kinase TAO1 (Homo sapiens, UniProt Q7L7X3). It is filed as functional.
Experiment [23] addresses Tyrosine-protein kinase JAK3 (Homo sapiens, UniProt P52333). The experiment is classed as functional.
In experiment [24] the target is Tyrosine-protein kinase Fyn (Homo sapiens, UniProt P06241). The experiment is classed as functional.
Experiment [25] deals with ALK tyrosine kinase receptor (Homo sapiens, UniProt Q9UM73). The experiment is classed as functional.
Experiment [26] concerns the target Death-associated protein kinase 3 (Homo sapiens, UniProt O43293). The experiment is classed as functional.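 Note: measured as one member of a kinome-wide profiling panel.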
The target of experiment [27] is Macrophage-stimulating protein receptor (Homo sapiens, UniProt Q04912). Kind of experiment: Navigating the Kinome. Panel member name: MST1R. It is filed as functional.
For experiment [28], the target named is Platelet-derived growth factor receptor alpha (Homo sapiens, UniProt P16234). Kind of experiment: Navigating the Kinome. Panel member name: PDGFRA. The experiment is classed as functional.
Experiment [29] has as its target Tyrosine-protein kinase receptor TYRO3 (Homo sapiens, UniProt Q06418). It is filed as functional.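 Note: TYRO3 value obtained as one member of a kinome-wide profiling panel.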
Experiment [30] concerns the target Cyclin-dependent kinase 5 (Homo sapiens, UniProt Q00535). It is filed as functional.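 Note: CDK5 measured as one member of a kinase profiling panel.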
The target in experiment [31] is Dual specificity tyrosine-phosphorylation-regulated kinase 1A (Homo sapiens, UniProt Q13627). The experiment is classed as functional.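 Note: measured against DYRK1A as one member of a broad kinome profiling panel.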
Another experiment concerns the target Aurora kinase A (Homo sapiens, UniProt O14965). It is filed as functional.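 Note: value from the Navigating the Kinome kinase panel profiling, panel entry STK6.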
The target in experiment [32] is MAP kinase-interacting serine/threonine-protein kinase 2 (Homo sapiens, UniProt Q9HBH9). It is filed as functional.
Another experiment concerns the target Aurora kinase B (Homo sapiens, UniProt Q96GD4). It is filed as functional.
Experiment [33] deals with High affinity nerve growth factor receptor (Homo sapiens, UniProt P04629). It is filed as functional.
The target of experiment [34] is Inhibitor of nuclear factor kappa-B kinase subunit epsilon (Homo sapiens, UniProt Q14164). Kind of experiment: Navigating the Kinome. Panel member name: IKBKE. The experiment is classed as functional.

Active and inactive are the calls of the source.

As usually defined, the Ki is a measure of affinity in units of concentration, obtained from inhibition or displacement.

Glycogen synthase kinase-3 beta, sequence (P49841 whole entry): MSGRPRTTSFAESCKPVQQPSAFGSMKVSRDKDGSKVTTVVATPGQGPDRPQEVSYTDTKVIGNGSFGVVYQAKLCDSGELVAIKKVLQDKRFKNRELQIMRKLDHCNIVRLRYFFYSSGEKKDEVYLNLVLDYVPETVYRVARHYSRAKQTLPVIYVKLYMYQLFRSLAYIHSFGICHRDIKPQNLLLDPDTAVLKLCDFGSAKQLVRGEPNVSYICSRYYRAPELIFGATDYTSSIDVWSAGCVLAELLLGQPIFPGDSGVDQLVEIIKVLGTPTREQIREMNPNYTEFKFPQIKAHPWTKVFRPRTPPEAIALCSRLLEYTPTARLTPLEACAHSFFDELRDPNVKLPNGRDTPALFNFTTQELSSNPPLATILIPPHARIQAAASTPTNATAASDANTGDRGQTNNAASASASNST
Cyclin-dependent kinase 7, sequence (P50613 whole entry): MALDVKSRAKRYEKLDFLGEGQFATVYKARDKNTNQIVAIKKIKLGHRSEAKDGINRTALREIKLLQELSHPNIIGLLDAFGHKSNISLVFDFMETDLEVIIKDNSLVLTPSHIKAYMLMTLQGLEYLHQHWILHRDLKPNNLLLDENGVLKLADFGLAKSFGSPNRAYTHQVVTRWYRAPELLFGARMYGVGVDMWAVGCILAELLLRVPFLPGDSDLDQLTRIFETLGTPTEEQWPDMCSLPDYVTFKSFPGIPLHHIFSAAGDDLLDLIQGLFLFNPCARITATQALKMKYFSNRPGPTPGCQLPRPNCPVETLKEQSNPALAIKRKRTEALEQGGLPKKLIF
Mitogen-activated protein kinase kinase kinase kinase 4, sequence (O95819 whole entry): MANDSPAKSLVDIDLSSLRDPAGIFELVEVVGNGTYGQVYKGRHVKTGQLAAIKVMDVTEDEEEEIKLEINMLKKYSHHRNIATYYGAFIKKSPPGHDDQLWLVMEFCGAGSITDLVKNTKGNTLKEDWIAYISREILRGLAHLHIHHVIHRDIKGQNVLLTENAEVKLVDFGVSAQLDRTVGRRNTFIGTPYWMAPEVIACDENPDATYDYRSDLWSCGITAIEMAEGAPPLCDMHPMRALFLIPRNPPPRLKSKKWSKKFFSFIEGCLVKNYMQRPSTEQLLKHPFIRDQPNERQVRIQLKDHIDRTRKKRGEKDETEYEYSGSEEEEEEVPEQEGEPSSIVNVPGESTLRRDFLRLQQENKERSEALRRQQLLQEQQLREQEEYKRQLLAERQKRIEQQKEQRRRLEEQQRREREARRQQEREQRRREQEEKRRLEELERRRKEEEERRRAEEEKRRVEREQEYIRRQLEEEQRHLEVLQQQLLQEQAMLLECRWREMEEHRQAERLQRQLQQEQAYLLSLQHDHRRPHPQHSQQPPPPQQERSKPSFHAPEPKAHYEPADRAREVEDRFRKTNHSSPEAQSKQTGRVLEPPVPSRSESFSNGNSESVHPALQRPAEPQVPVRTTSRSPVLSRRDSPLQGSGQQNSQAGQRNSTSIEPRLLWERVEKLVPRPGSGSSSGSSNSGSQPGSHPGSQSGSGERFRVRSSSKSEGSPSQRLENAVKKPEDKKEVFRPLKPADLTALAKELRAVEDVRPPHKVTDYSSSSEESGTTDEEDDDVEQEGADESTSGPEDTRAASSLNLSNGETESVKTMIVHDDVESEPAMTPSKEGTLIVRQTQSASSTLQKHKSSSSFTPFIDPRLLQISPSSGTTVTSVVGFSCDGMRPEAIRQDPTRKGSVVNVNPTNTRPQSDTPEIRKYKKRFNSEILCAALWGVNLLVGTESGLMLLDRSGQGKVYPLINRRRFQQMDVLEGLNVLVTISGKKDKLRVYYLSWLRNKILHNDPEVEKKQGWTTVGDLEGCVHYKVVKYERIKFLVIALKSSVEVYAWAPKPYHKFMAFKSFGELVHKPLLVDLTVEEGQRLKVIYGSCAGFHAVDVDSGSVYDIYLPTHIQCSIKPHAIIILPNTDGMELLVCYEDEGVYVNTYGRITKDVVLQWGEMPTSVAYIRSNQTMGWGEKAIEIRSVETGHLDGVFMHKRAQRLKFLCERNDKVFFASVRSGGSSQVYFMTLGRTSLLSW
Homeodomain-interacting protein kinase 2, sequence (Q9H2X6 whole entry): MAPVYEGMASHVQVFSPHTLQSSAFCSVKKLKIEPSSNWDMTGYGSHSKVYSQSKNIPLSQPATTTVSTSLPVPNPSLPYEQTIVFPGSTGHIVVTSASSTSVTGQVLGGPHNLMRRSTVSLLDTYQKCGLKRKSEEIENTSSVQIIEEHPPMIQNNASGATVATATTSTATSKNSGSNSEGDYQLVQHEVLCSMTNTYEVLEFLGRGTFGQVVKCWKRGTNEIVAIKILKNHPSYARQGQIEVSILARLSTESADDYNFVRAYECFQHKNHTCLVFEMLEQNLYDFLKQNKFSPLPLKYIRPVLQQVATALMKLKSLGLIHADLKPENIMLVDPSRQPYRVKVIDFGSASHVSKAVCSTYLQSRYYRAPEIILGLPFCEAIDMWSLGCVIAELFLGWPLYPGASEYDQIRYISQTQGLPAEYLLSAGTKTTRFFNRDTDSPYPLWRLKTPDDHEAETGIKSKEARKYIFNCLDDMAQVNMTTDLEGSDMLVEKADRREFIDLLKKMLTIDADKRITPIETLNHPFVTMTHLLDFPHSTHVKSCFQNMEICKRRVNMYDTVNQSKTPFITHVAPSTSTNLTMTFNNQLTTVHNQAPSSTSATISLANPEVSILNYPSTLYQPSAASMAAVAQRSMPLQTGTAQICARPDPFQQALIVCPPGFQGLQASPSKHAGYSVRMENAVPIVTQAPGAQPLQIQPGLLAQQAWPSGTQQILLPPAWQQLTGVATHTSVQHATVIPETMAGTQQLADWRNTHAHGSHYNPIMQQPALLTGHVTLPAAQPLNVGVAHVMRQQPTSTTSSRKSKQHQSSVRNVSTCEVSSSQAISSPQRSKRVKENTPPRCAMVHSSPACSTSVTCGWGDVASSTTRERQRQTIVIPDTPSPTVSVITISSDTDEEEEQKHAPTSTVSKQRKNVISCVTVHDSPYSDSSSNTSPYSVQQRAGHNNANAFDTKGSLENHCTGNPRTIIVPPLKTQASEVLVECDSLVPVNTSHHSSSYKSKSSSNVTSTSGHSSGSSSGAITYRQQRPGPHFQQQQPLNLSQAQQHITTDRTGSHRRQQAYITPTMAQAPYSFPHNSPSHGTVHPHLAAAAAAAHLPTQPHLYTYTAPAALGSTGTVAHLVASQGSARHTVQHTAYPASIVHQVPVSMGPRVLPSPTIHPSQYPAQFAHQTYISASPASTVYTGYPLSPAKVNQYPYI

Turning to `O=c1c(/C=C(\O)c2ccccc2)nc2ccccc2n1-c1ccccc1`, the EC50 is 6.1 µM (inconclusive) in experiment [1]; 20 µM (inactive) in experiment [2]; 20 µM (inactive) in experiment [3]; 11.6 µM (active) in experiment [4]; 20 µM (inactive) at Lethal factor; 78.2 µM (inconclusive) in experiment [5].
Turning to `COCCNc1cc(-c2c[nH]c3ncccc23)cc(Cl)n1`, the inhibition constant (Ki) is 0.794 µM (active) in [6]; 3.98 µM (active) in [7]; 0.002 µM (active) in [8]; 0.126 µM (active) in [9]; 0.0631 µM (active) in [10]; 0.2 µM (active) in [11]. Besides, the Ki in [12] and in experiment [13] was 0.158 µM (active) each time.
As for `O=C1CC(c2ccccc2)Cc2[nH]c3cc(Cl)ccc3c(=O)c21` (stereo unspecified), the figures for the Ki in experiment [6], in [14] and in experiment [15] were 2.51 µM (active), > 100 µM (inactive) and 3.98 µM (active), respectively.
For the molecule `CN(C)c1ccc(NC(=O)CC2Nc3ccccc3NC2=O)cc1` (stereo unspecified), the Ki in experiment [16] was > 3.98 µM (inactive); in [6] it was > 6.31 µM (inactive); in [17], > 5.01 µM (inactive); at Activin receptor type-1, > 3.98 µM (inactive); in [18], > 5.01 µM (inactive); in experiment [19], > 3.98 µM (inactive). The Ki is > 3.98 µM (inactive) in experiment [20]; > 5.01 µM (inactive) in experiment [21]; > 6.31 µM (inactive) in experiment [22]; > 5.01 µM (inactive) in [23]; > 6.31 µM (inactive) in experiment [24]; > 6.31 µM (inactive) in [25]. Also, the figures for the Ki in [12], in [26] and in experiment [27] were > 3.98 µM (inactive), > 5.01 µM (inactive) and 0.398 µM (active), respectively.
Regarding `CC(=O)n1nc(N)c2ccc(Br)cc21`, the Ki in experiment [28] was 2.51 µM (active); in experiment [29], 2.51 µM (active); in experiment [30], 1.58 µM (active).
Regarding `COc1nc(N)c(C#N)c(-c2ccc(Cl)cc2Cl)c1C#N`, the Ki was 7.94 µM (active) in [15], 2.51 µM (active) in [19], 5.01 µM (active) in experiment [31] and 2.51 µM (active) in [9].
As to `Cc1ccc(Nc2nccc(Nc3ccccc3C(=O)O)n2)cc1F`, the Ki in experiment [6] was 0.158 µM (active); in experiment [7] it was 3.98 µM (active); in [17], 0.2 µM (active); in [15] it was 0.0794 µM (active); on Aurora kinase A, 0.0158 µM (active); in [9], 0.00316 µM (active). Further, the Ki in experiment [32] was 0.251 µM (active); in experiment [10], 0.00631 µM (active); at Aurora kinase B, 0.00501 µM (active); in experiment [13] it was > 7.94 µM (inactive).
As to `Nc1ncnc2c1N=C(c1ccc(NC(=O)Nc3ccc(F)c(C(F)(F)F)c3)cc1)CCN2`, the inhibition constant (Ki) was 0.126 µM (active) in [33] and 3.16 µM (active) in experiment [34].
